pIC50: −log10 of the molar value.
How the values were obtained:
[1] = molecular target: Vascular endothelial growth factor receptor 2 (Homo sapiens, UniProt P35968); experiment: Inhibition of VEGFR-2 (unknown origin) after 40 mins by Kinase-GloPlus luminescence assay
[2] = test system: K562; experiment: Growth inhibition of human K562 cells at 10 uM after 48 hrs by SRB assay; assay type: functional; conditions: K562, 48 h, read-out: GI
[3] = Growth inhibition of human HOP92 cells at 10 uM after 48 hrs by SRB assay; assay type: functional; conditions: HOP-92, 48 h, read-out: GI
[4] = test system: NCI-H23; experiment: Growth inhibition of human NCI-H23 cells at 10 uM after 48 hrs by SRB assay; assay type: functional; conditions: NCI-H23, 48 h, read-out: GI
[5] = Growth inhibition of human SF295 cells at 10 uM after 48 hrs by SRB assay; assay type: functional; conditions: SF-295, 48 h, read-out: GI
[6] = Growth inhibition of human SNB19 cells at 10 uM after 48 hrs by SRB assay; assay type: functional; conditions: SNB-19, 48 h, read-out: GI
[7] = test system: U-251; experiment: Growth inhibition of human U251 cells at 10 uM after 48 hrs by SRB assay; assay type: functional; conditions: U-251, 48 h, read-out: GI
[8] = Growth inhibition of human LOXIMVI cells at 10 uM after 48 hrs by SRB assay; assay type: functional; conditions: LOX IMVI, read-out: GI
[9] = test system: Malme-3M; experiment: Growth inhibition of human MALME-3M cells at 10 uM after 48 hrs by SRB assay; assay type: functional; conditions: read-out: GI
[10] = test system: SK-MEL-2; experiment: Growth inhibition of human SK-MEL-2 cells at 10 uM after 48 hrs by SRB assay; assay type: functional; conditions: SK-MEL-2, 48 h, read-out: GI
[11] = test system: SK-MEL-5; experiment: Growth inhibition of human SK-MEL-5 cells at 10 uM after 48 hrs by SRB assay; assay type: functional; conditions: SK-MEL-5, 48 h, read-out: GI
[12] = Growth inhibition of human UACC257 cells at 10 uM after 48 hrs by SRB assay; assay type: functional; conditions: UACC-257, 48 h, read-out: GI
[13] = Growth inhibition of human UACC62 cells at 10 uM after 48 hrs by SRB assay; assay type: functional; conditions: UACC-62, 48 h, read-out: GI
[14] = test system: 786-0; experiment: Growth inhibition of human 786-0 cells at 10 uM after 48 hrs by SRB assay; assay type: functional; conditions: 786-0, 48 h, read-out: GI
[15] = test system: A498; experiment: Growth inhibition of human A498 cells at 10 uM after 48 hrs by SRB assay; assay type: functional; conditions: A498, 48 h, read-out: GI
[16] = test system: ACHN; experiment: Growth inhibition of human ACHN cells at 10 uM after 48 hrs by SRB assay; assay type: functional; conditions: read-out: GI
[17] = Growth inhibition of human UO31 cells at 10 uM after 48 hrs by SRB assay; assay type: functional; conditions: UO-31, 48 h, read-out: GI
[18] = Growth inhibition of human Hs 578T cells at 10 uM after 48 hrs by SRB assay; assay type: functional; conditions: read-out: GI
[19] = Growth inhibition of human BT549 cells at 10 uM after 48 hrs by SRB assay; assay type: functional; conditions: BT-549, 48 h, read-out: GI
[20] = test system: CCRF-CEM; experiment: Growth inhibition of human CCRF-CEM cells after 48 hrs by SRB assay; assay type: functional
[21] = test system: K562; experiment: Growth inhibition of human K562 cells after 48 hrs by SRB assay; assay type: functional; conditions: K562, 48 h
[22] = Growth inhibition of human MOLT4 cells after 48 hrs by SRB assay; assay type: functional; conditions: MOLT-4, 48 h
[23] = Growth inhibition of human RPMI8226 cells after 48 hrs by SRB assay; assay type: functional; conditions: RPMI-8226, 48 h
[24] = Growth inhibition of human HOP92 cells after 48 hrs by SRB assay; assay type: functional; conditions: HOP-92, 48 h
[25] = test system: NCI-H226; experiment: Growth inhibition of human NCI-H226 cells after 48 hrs by SRB assay; assay type: functional; conditions: NCI-H226, 48 h
[26] = test system: NCI-H460; experiment: Growth inhibition of human NCI-H460 cells after 48 hrs by SRB assay; assay type: functional; conditions: NCI-H460, 48 h
[27] = test system: HT-29; experiment: Growth inhibition of human HT-29 cells after 48 hrs by SRB assay; assay type: functional; conditions: HT-29, 48 h
[28] = Growth inhibition of human SF268 cells after 48 hrs by SRB assay; assay type: functional; conditions: SF-268, 48 h
[29] = test system: SK-MEL-2; experiment: Growth inhibition of human SK-MEL-2 cells after 48 hrs by SRB assay; assay type: functional; conditions: SK-MEL-2, 48 h
[30] = test system: SK-MEL-5; experiment: Growth inhibition of human SK-MEL-5 cells after 48 hrs by SRB assay; assay type: functional; conditions: SK-MEL-5, 48 h
[31] = Growth inhibition of human UACC257 cells after 48 hrs by SRB assay; assay type: functional; conditions: UACC-257, 48 h
[32] = Growth inhibition of human OVCAR4 cells after 48 hrs by SRB assay; assay type: functional; conditions: OVCAR-4, 48 h
[33] = test system: 786-0; experiment: Growth inhibition of human 786-0 cells after 48 hrs by SRB assay; assay type: functional; conditions: 786-0, 48 h
[34] = test system: A498; experiment: Growth inhibition of human A498 cells after 48 hrs by SRB assay; assay type: functional; conditions: A498, 48 h
[35] = Growth inhibition of human TK10 cells after 48 hrs by SRB assay; assay type: functional; conditions: TK-10, 48 h
[36] = Growth inhibition of human BT549 cells after 48 hrs by SRB assay; assay type: functional; conditions: BT-549, 48 h
[37] = molecular target: Aurora kinase A (Homo sapiens) (UniProt O14965); experiment: Inhibition of Aurora A (unknown origin) at 10 uM
Chain of Aurora kinase A (Homo sapiens) (O14965 whole entry): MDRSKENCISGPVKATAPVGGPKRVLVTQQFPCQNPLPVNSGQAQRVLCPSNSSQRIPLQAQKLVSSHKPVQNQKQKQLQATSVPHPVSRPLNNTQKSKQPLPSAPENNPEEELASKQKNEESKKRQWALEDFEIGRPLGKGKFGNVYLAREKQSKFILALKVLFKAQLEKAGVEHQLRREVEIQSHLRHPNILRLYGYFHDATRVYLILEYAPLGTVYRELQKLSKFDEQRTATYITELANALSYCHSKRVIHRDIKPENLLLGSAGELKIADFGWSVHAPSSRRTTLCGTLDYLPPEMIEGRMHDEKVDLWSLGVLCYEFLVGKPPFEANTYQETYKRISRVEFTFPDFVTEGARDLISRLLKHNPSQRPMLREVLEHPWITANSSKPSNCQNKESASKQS

[38] = molecular target: Cyclin-dependent kinase 2 (Homo sapiens) (UniProt P24941); experiment: Inhibition of CDK-2 (unknown origin) at 10 uM
[39] = molecular target: Mast/stem cell growth factor receptor Kit (Homo sapiens) (UniProt P10721); experiment: Inhibition of c-Kit (unknown origin) at 10 uM
Chain of Mast/stem cell growth factor receptor Kit (Homo sapiens) (P10721 whole entry): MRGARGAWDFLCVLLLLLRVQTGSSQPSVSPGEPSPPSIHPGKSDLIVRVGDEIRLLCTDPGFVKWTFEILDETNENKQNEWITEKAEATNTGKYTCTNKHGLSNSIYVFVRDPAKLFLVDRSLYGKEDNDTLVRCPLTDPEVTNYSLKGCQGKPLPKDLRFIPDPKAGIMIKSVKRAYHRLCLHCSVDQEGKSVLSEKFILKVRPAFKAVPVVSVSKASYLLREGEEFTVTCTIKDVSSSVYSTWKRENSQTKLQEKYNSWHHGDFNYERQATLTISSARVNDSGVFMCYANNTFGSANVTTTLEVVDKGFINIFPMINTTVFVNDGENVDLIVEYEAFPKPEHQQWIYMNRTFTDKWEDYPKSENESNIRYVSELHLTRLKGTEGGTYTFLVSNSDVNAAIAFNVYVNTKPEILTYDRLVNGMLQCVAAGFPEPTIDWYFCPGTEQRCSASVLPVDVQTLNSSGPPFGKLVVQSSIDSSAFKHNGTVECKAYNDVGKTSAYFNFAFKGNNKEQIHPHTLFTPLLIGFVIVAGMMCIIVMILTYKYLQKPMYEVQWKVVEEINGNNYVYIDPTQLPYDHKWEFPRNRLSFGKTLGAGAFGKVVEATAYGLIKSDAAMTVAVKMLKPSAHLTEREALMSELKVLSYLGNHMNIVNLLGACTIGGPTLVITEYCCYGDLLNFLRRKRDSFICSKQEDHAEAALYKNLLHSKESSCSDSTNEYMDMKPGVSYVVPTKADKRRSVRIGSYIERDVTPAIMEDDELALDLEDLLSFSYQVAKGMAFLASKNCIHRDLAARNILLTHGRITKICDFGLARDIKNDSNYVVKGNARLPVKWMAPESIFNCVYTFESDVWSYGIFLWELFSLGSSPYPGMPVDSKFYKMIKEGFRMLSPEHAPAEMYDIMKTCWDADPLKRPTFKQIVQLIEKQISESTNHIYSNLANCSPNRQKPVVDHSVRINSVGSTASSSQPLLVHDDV

[40] = read-out: LC50 (the source's name)

Chain of Vascular endothelial growth factor receptor 2 (P35968 whole entry): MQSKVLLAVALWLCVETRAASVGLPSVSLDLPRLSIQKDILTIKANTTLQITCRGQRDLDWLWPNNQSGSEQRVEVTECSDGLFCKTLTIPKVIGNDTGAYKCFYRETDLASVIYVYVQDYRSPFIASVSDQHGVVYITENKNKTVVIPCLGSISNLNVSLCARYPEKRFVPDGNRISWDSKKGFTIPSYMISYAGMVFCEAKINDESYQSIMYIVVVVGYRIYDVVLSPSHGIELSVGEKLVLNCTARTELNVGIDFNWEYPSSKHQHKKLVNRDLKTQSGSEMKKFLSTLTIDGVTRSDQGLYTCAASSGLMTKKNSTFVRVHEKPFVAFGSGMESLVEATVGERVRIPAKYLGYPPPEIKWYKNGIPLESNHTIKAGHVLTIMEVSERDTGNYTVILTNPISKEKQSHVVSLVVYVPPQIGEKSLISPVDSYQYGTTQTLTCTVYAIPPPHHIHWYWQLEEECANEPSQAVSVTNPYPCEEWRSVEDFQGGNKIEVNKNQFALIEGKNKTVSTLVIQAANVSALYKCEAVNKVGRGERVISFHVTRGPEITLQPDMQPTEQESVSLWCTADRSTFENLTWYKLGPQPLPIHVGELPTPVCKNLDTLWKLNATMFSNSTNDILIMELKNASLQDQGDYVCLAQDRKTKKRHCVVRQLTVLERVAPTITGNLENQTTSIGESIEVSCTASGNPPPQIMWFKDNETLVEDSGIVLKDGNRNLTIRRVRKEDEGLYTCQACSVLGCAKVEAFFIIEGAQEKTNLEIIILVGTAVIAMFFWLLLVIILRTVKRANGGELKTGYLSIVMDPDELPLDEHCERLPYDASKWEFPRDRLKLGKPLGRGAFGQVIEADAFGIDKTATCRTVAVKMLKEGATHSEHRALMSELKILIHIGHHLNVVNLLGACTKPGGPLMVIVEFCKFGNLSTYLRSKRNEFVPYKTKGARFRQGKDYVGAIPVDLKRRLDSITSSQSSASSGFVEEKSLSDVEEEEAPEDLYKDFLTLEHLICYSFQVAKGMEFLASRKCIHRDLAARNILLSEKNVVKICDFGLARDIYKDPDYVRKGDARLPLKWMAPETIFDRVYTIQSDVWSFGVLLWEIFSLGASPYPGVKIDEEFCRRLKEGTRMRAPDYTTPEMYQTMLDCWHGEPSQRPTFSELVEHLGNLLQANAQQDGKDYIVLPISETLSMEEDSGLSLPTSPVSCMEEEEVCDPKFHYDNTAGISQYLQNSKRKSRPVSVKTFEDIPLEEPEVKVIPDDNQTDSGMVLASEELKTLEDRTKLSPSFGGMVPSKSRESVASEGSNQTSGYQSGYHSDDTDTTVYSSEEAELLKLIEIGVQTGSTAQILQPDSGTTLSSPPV

COc1cccc(Nc2nccc(Nc3ccc4[nH]ncc4c3)n2)c1
pIC50 [1]: 7.09 | inhibition of growth at 10 µM [2]: 110% | inhibition of growth at 10 µM [3]: 111% | inhibition of growth at 10 µM [4]: 129% | inhibition of growth at 10 µM [5]: 84% | inhibition of growth at 10 µM [6]: 76% | inhibition of growth at 10 µM [7]: 194% | inhibition of growth at 10 µM [8]: 167% | inhibition of growth at 10 µM [9]: 149% | inhibition of growth at 10 µM [10]: 137% | inhibition of growth at 10 µM [11]: 184% | inhibition of growth at 10 µM [12]: 89% | inhibition of growth at 10 µM [13]: 157% | inhibition of growth at 10 µM [14]: 112% | inhibition of growth at 10 µM [15]: 87% | inhibition of growth at 10 µM [16]: 103% | inhibition of growth at 10 µM [17]: 162% | inhibition of growth at 10 µM [18]: 76% | inhibition of growth at 10 µM [19]: 116% | GI50 [20]: 0.9 µM | LC50 (concentration for 50% net cell kill) [20]: 21.7 µM | TGI [20]: 4.56 µM | GI50 [21]: 1.3 µM | LC50 [21]: 7.13 µM | TGI [21]: 3.89 µM | GI50 [22]: 0.52 µM | LC50 [22]: 28.4 µM | TGI [22]: 2.83 µM | GI50 [23]: 1.36 µM | LC50 [23]: 50.1 µM | TGI [23]: 4.19 µM | GI50 [24]: 1.45 µM | TGI [24]: 4.14 µM | CC50 [24, 40]: 15.3 µM | GI50 [25]: 1.82 µM | TGI [25]: 4.46 µM | CC50 [25, 40]: 14.8 µM | GI50 [26]: 1.64 µM | LC50 (50% lethal concentration) [26]: 11.5 µM | TGI [26]: 4.17 µM | GI50 [27]: 1.52 µM | TGI [27]: 3.45 µM | CC50 [27, 40]: 7.83 µM | GI50 [28]: 1.86 µM | TGI [28]: 5.89 µM | CC50 [28, 40]: 22.5 µM | GI50 [29]: 1.62 µM | LC50 [29]: 6.59 µM | TGI [29]: 3.27 µM | GI50 [30]: 1.22 µM | TGI [30]: 2.47 µM | CC50 [30, 40]: 5.01 µM | GI50 [31]: 2.04 µM | TGI [31]: 3.73 µM | CC50 [31, 40]: 6.79 µM | GI50 [32]: 1.46 µM | TGI [32]: 4.03 µM | CC50 [32, 40]: 12.5 µM | GI50 [33]: 1.46 µM | TGI [33]: 2.91 µM | CC50 [33, 40]: 5.82 µM | GI50 [34]: 1.65 µM | TGI [34]: 5.3 µM | CC50 [34, 40]: 30.5 µM | GI50 [35]: 1.42 µM | TGI [35]: 2.82 µM | CC50 [35, 40]: 5.6 µM | GI50 [36]: 1.67 µM | TGI [36]: 3.71 µM | CC50 [36, 40]: 8.23 µM | inhibition [37]: 76% | inhibition [38]: 76% | inhibition [39]: 80%

Reference: ChEMBL document CHEMBL3817755, “Design, synthesis and biological evaluation of indazolepyrimidine based derivatives as anticancer agents with anti-angiogenic and antiproliferative activities” (Medchemcomm, 2016)
